Source: patent US20260226493A1, “HERBICIDE RESISTANT PLANTS” (SYNGENTA CROP PROTECTION AG, priority 2023, published 2026)

What was measured:
[1] = tested on: Arabidopsis thaliana BIO3-BIO1 (BioDA) mutants; assay: BIO3-BIO1 mutant enzyme activity in the presence of herbicide, percentage inhibition (fluorometric DAPA assay); format: biochemical
Summary of the method: (§1)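 Percentage inhibition compares activity at one of three herbicide concentrations against DMSO, from o-phthalaldehyde-derivatised DAPA fluorescence (ex 410, em 470 nm). Purified N-His BIO3-BIO1 variants (50 nM, E. coli-expressed) saw herbicide 10 min at 20 °C in pH 8.6 EPPS buffer, then 20 μM KAPA plus 100 μM spermidine for 75 min at 20 °C.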

[2] = biological target: T1, Arabidopsis thaliana BIO3-BIO1 (BioDA) mutants (Arabidopsis thaliana, UniProt B0F481); assay: as above; format: biochemical
T1 construct: with the predicted N-terminal mitochondrial transit peptide removed; 6xHis-tag (N); thrombin cleavage site (N); made in house; host or cells: E. coli BL21 (DE3) bioA
T1 sequence (B0F481 23-833, change not shown): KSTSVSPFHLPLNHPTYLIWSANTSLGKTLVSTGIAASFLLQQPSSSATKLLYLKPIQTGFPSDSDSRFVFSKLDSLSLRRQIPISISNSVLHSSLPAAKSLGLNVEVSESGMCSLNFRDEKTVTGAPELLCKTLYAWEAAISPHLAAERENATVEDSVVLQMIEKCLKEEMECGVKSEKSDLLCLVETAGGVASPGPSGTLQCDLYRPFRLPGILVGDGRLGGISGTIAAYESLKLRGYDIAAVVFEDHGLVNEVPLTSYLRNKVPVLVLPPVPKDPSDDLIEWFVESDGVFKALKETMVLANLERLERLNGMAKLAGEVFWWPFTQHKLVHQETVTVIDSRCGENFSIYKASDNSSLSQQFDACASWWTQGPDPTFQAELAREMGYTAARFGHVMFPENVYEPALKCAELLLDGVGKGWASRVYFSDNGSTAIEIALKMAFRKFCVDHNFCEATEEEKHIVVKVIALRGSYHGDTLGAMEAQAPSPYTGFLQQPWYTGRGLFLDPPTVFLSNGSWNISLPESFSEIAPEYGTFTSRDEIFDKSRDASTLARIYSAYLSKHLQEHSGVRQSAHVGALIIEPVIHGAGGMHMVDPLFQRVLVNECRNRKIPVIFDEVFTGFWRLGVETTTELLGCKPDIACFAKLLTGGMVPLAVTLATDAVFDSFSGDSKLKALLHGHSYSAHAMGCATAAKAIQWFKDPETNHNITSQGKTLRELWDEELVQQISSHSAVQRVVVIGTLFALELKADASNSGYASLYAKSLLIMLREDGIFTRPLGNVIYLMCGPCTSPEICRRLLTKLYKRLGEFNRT
Summary of the method: as §1

[3] = read-out: percentage inhibition

## CCOC(=O)c1nn(-c2ccc3c(c2)OC(F)(F)C(F)(F)O3)c2cccc(C(C)=O)c2c1=O [Compound A, ethyl 5-acetyl-4-oxo-1-(2,2,3,3-tetrafluoro-1,4-benzodioxin-6-yl)cinnoline-3-carboxylate]
[1]; variant Q517M, 1 μM
  percentage inhibition: 38%
[1]; variant W392A, 1 μM
  percentage inhibition: 53%

## CCn1c(Cn2ccc(C(F)(F)F)n2)cc(=O)c(C(=O)O)c1-c1ccc(Cl)c(Cl)c1 [Compound L, 2-(3,4-dichlorophenyl)-1-ethyl-4-oxo-6-[[3-(trifluoromethyl)pyrazol-1-yl]methyl]pyridine-3-carboxylic acid]
[2]; [3]
  inhibition at 0.01 µM: 6%
  inhibition at 0.075 µM: 44%
  inhibition at 0.5 µM: 83%
[1]; variant Q517F, 0.01 μM
  percentage inhibition: 0%
[1]; variant Q517F, 0.075 μM
  percentage inhibition: 17%
[1]; variant Q517F, 0.5 μM
  percentage inhibition: 54%
[1]; variant Q517H, 0.01 μM
  percentage inhibition: 0%
[1]; variant T393V, 0.01 μM
  percentage inhibition: 9%
[1]; variant T393V, 0.075 μM
  percentage inhibition: 19%
[1]; variant T393V, 0.5 μM
  percentage inhibition: 65%
[1]; variant T512C, 0.01 μM
  percentage inhibition: 0%
[1]; variant T512C, 0.075 μM
  percentage inhibition: 18%
[1]; variant T512C, 0.5 μM
  percentage inhibition: 69%
[1]; variant T512D, 0.01 μM
  percentage inhibition: 24%
[1]; variant T512D, 0.075 μM
  percentage inhibition: 23%
[1]; variant T512D, 0.5 μM
  percentage inhibition: 58%
[1]; variant T512G, 0.01 μM
  percentage inhibition: 0%
[1]; variant T512G, 0.075 μM
  percentage inhibition: 0%
[1]; variant T512G, 0.5 μM
  percentage inhibition: 20%
[1]; variant T512I, 0.01 μM
  percentage inhibition: 2%
[1]; variant T512I, 0.075 μM
  percentage inhibition: 15%
[1]; variant T512I, 0.5 μM
  percentage inhibition: 29%
[1]; variant T512N, 0.01 μM
  percentage inhibition: 15%
[1]; variant T512N, 0.075 μM
  percentage inhibition: 37%
[1]; variant T512N, 0.5 μM
  percentage inhibition: 76%
[1]; variant T512Q, 0.01 μM
  percentage inhibition: 3%
[1]; variant T512Q, 0.075 μM
  percentage inhibition: 35%
[1]; variant T512Q, 0.5 μM
  percentage inhibition: 74%
[1]; variant T512R, 0.01 μM
  percentage inhibition: 27%
[1]; variant T512R, 0.075 μM
  percentage inhibition: 61%
[1]; variant T512R, 0.5 μM
  percentage inhibition: 91%
[1]; variant T512V, 0.01 μM
  percentage inhibition: 33%
[1]; variant T512V, 0.075 μM
  percentage inhibition: 57%
[1]; variant T512V, 0.5 μM
  percentage inhibition: 83%
[1]; variant T512W, 0.01 μM
  percentage inhibition: 18%
[1]; variant T512W, 0.075 μM
  percentage inhibition: 0%
[1]; variant T512W, 0.5 μM
  percentage inhibition: 31%
[1]; variant V354A, 0.01 μM
  percentage inhibition: 6%
[1]; variant V354A, 0.075 μM
  percentage inhibition: 0%
[1]; variant V354A, 0.5 μM
  percentage inhibition: 47%
[1]; variant V354E, 0.01 μM
  percentage inhibition: 4%
[1]; variant V354E, 0.075 μM
  percentage inhibition: 19%
[1]; variant V354E, 0.5 μM
  percentage inhibition: 35%
[1]; variant V354L, 0.01 μM
  percentage inhibition: 0%
[1]; variant V354L, 0.075 μM
  percentage inhibition: 16%
[1]; variant V354L, 0.5 μM
  percentage inhibition: 63%
[1]; variant V354T, 0.01 μM
  percentage inhibition: 0%
[1]; variant V354T, 0.075 μM
  percentage inhibition: 7%
[1]; variant V354T, 0.5 μM
  percentage inhibition: 89%
[1]; variant W391L, 0.01 μM
  percentage inhibition: 24%
[1]; variant W391L, 0.075 μM
  percentage inhibition: 10%
[1]; variant W391L, 0.5 μM
  percentage inhibition: 16%
[1]; variant W391M, 0.01 μM
  percentage inhibition: 0%
[1]; variant W391M, 0.075 μM
  percentage inhibition: 16%
[1]; variant W391M, 0.5 μM
  percentage inhibition: 30%
[1]; variant W392C, 0.01 μM
  percentage inhibition: 2%
[1]; variant W392C, 0.075 μM
  percentage inhibition: 12%
[1]; variant W392C, 0.5 μM
  percentage inhibition: 13%
[1]; variant W392D, 0.01 μM
  percentage inhibition: 19%
[1]; variant W392D, 0.075 μM
  percentage inhibition: 59%
[1]; variant W392D, 0.5 μM
  percentage inhibition: 85%
[1]; variant W392G, 0.01 μM
  percentage inhibition: 0%
[1]; variant W392G, 0.075 μM
  percentage inhibition: 2%
[1]; variant W392G, 0.5 μM
  percentage inhibition: 0%
[1]; variant W392M, 0.01 μM
  percentage inhibition: 0%
[1]; variant W392M, 0.075 μM
  percentage inhibition: 10%
[1]; variant W392M, 0.5 μM
  percentage inhibition: 8%
[1]; variant W392S, 0.01 μM
  percentage inhibition: 0%
[1]; variant W392S, 0.075 μM
  percentage inhibition: 3%
[1]; variant W392S, 0.5 μM
  percentage inhibition: 0%
[1]; variant Y511C, 0.01 μM
  percentage inhibition: 0%
[1]; variant Y511C, 0.075 μM
  percentage inhibition: 3%
[1]; variant Y511C, 0.5 μM
  percentage inhibition: 44%
[1]; variant Y511D, 0.01 μM
  percentage inhibition: 20%
[1]; variant Y511D, 0.075 μM
  percentage inhibition: 29%
[1]; variant Y511D, 0.5 μM
  percentage inhibition: 51%
[1]; variant Y511E, 0.01 μM
  percentage inhibition: 0%
[1]; variant Y511E, 0.075 μM
  percentage inhibition: 0%
[1]; variant Y511E, 0.5 μM
  percentage inhibition: 33%
[1]; variant Y511F, 0.01 μM
  percentage inhibition: 48%
[1]; variant Y511F, 0.075 μM
  percentage inhibition: 65%
[1]; variant Y511F, 0.5 μM
  percentage inhibition: 86%
[1]; variant Y511I, 0.01 μM
  percentage inhibition: 21%
[1]; variant Y511I, 0.075 μM
  percentage inhibition: 27%
[1]; variant Y511I, 0.5 μM
  percentage inhibition: 28%
[1]; variant Y511M, 0.01 μM
  percentage inhibition: 0%
[1]; variant Y511M, 0.075 μM
  percentage inhibition: 27%
[1]; variant Y511M, 0.5 μM
  percentage inhibition: 76%
[1]; variant Y511P, 0.01 μM
  percentage inhibition: 10%
[1]; variant Y511P, 0.075 μM
  percentage inhibition: 26%
[1]; variant Y511P, 0.5 μM
  percentage inhibition: 63%
[1]; variant Y511Q, 0.01 μM
  percentage inhibition: 0%
[1]; variant Y511Q, 0.075 μM
  percentage inhibition: 6%
[1]; variant Y511Q, 0.5 μM
  percentage inhibition: 28%
[1]; variant Y511R, 0.01 μM
  percentage inhibition: 15%
[1]; variant Y511R, 0.075 μM
  percentage inhibition: 7%
[1]; variant Y511R, 0.5 μM
  percentage inhibition: 34%
[1]; variant Y511V, 0.01 μM
  percentage inhibition: 0%
[1]; variant Y511V, 0.075 μM
  percentage inhibition: 5%
[1]; variant Y511V, 0.5 μM
  percentage inhibition: 49%
[1]; variant Y511W, 0.01 μM
  percentage inhibition: 11%
[1]; variant Y511W, 0.075 μM
  percentage inhibition: 22%
[1]; variant Y511W, 0.5 μM
  percentage inhibition: 50%

## CCn1c(-c2ccc(Cl)c(Cl)c2)c(C(=O)O)c(=O)c2cc(F)ccc21 [Compound M, 2-(3,4-dichlorophenyl)-1-ethyl-6-fluoro-4-oxo-quinoline-3-carboxylic acid]
[2]; WT (SEQ ID NO 294), 0.1 μM herbicide
  percentage inhibition: 23%
[2]; [3]
  inhibition at 0.2 µM: 23%
